“And” between values parts separate entries of the source, which are not always exact repeats. Equal entries are not always repeated. Structures can show the parent of a compound that is named as a salt.
Experiments:
recombinant human HDAC8 = target: T1, recombinant human HDAC8 (Homo sapiens, UniProt Q9BY41); assay: HDAC8 in vitro inhibition assay (Fluor de Lys kit); assay type: biochemical; details: for inhibition at 100 µM: read-out: Inhibition (%) @ Conc. (µM) HDAC8
T1 construct: made in house
T1 sequence (Q9BY41 1-377): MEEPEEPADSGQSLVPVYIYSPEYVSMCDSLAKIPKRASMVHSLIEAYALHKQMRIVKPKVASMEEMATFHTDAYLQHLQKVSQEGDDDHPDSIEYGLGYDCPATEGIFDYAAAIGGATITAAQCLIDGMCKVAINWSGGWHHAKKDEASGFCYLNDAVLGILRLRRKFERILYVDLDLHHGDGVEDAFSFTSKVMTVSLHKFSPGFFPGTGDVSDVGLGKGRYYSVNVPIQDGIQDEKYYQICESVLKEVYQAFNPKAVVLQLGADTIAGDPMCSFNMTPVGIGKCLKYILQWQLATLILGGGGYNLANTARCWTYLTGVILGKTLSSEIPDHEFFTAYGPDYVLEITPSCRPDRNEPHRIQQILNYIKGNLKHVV
Text: (§1) In order to investigate a potential subtype selectivity among different HDAC classes, we first tested them against the recombinant histone deacetylases HDAC1 (class I) and HDAC6 (class llb). […] To further address this issue, we also tested the respective compounds against the class l histone deacetylase HDAC8 (also see Table 1).
(§2) Recombinant human HDAC1 and 6 were purchased from BPS Biosciences (San Diego, CA, USA), and recombinant human HDAC8 was produced as described before. Inhibition tests of human HDAC1 and 6 were conducted using carboxybenzyl acetyllysine aminomethylcoumarin (ZMAL) as a substrate. […] For testing of HDAC8, the commercial Fluor de Lys drug discovery kit (BML-KI178) (Enzo Life Sciences, Lausen, Switzerland) was used according to the manufacturer’s instruction. Briefly, the test compound, Fluor de Lys-HDAC8 substrate (50 μM), and enzyme were incubated for 90 min at 37 °C with subsequent addition of 50 μL of Developer II (BML-KI176) (Enzo Life Sciences, Lausen, Switzerland) and further incubation for 45 min at 30 °C. In both assays, trichostatin A (2 μM) was used to stop the reaction. Fluorescence in both cases was measured in a plate reader (BMG Polarstar, BMG Labtech, Ortenberg, Germany) with excitation at λ = 390 nm and emission at λ = 460 nm.

[1] = test system: HDAC activity in U937 cells; assay: Cellular HDAC inhibition assay (MAL substrate) in U937 cells; details: Homo sapiens, U-937, read-out: IC50 (µM) ± SE cellular HDAC inhibition U937
Protocol: (§3) Therefore, we decided to adapt this assay for a cellular setting allowing us to verify the previous results by assessing HDAC inhibition in the human leukemia cell lines HL60 and U937 (see the right side of Table 2).
(§4) After 2 h of incubation, 50 µL substrate solution were added, containing tert-butyloxycarbonyl acetyl lysine aminomethylcoumarin (MAL) as a substrate (300 µM final assay concentration) and IGEPAL CA-630 (final concentration 0.05%). After 2 more hours of incubation at 37 °C and 5% CO2, 50 µL stop solution consisting of 0.5 µL TSA (100 µM) and 5 µL trypsin solution (10 mg/mL) in 44.5 µL cell buffer were added. This mixture was incubated for a further 20 min at 37 °C. Fluorescence was measured in a plate reader (BMG Polarstar) with excitation at λ = 390 nm and emission at λ = 460 nm.

[2] = Stability analysis under in vitro assay conditions, HPLC quantification of released hydroxamic acid; assay type: physicochemical; details: in vitro assay conditions without substrate, HDAC1 present, compound 2.4 mM, 90 min 37 °C
Protocol: In order to address the question if the newly-synthesized carbamates are hydrolyzed during the assay procedure or if they really serve as HDAC inhibitors themselves, stability stress tests were performed. For this purpose, the compounds were subjected to the standard in vitro assay conditions, but without adding a substrate as, no enzyme conversion should be observed in these experiments. After 90 min of incubation at 37 °C, the release of SAHA of the different samples was detected and quantified via HPLC. This led to the finding that a release of SAHA could be detected for all samples (see Table 1). […] This means that the question if the carbamate scaffold represents a new warhead for HDAC inhibition or if the degradation to SAHA is solely responsible for the observed inhibitory effects cannot be resolved completely.
To test the stability of Compound 9 under assay conditions, we also performed stability analysis with HPLC quantification. This experiment led to the finding that 8.7% of the carbamate 9 is degraded under release of bufexamac during incubation time. This fraction of released bufexamac may contribute to in vitro and cellular HDAC inhibition, but the observed selectivity profile of the carbamate in the in vitro assays clearly implies an intrinsic HDAC activity of carbamates.
For stability tests, the carbamates were subjected to the described in vitro assay conditions (see above) without adding the substrate ZMAL and without the second incubation step with trypsin. Compounds were applied in a final concentration of 2.4 mM, and recombinant HDAC1 was used as the enzyme. After 90 min of incubation at 37 °C, the release of SAHA was detected via HPLC on an Agilent 1200 series device. The employed analytical column was a Kinetex 5u XB-C18, 100 Å, 250 × 4.6 mm (Phenomenex, Torrance, CA, USA) with the ReproSil 100 C18 5-µm precolumn (Jasco, Oklahoma City, OK, USA). The following conditions were applied: Eluent A: H2O containing 0.05% TFA, Eluent B: acetonitrile containing 0.05% TFA, linear gradient conditions (0–4 min, A = 90%, B = 10%; 4–29 min, linear increase to 100% of B; 29–31 min, B = 100%; 31.5–40 min, A = 10%, B = 90%); injection volume: 30 µL, flow rate: 1 mL/min; detection wavelength: λ = 254 nm. For evaluation, the ChemStation software from Agilent was used. To quantify the released amount of SAHA and bufexamac, calibration curves were plotted by incubating DMSO stocks of these compounds under in vitro assay conditions with final compound concentrations ranging from 1 µM–200 µM. HPLC analysis with the conditions described above led to the following equations: y = 13.935x − 27.918 for SAHA and y = 0.6099x + 1.1301 for bufexamac.

HL60 cells = assay: Cell proliferation assay (CellTiter 96 AQueous) in HL60 cells; details: Homo sapiens, HL-60, 72 h, read-out: GI50 (µM) ± SE HL60
Protocol: (§5) To further investigate the inhibition properties of the carbamates, we tested their antiproliferative activity on human promyelocytic leukemia cells (HL60) and on human histiocytic lymphoma cells (U937).
(§6) HL60 or U937 cells were seeded in 96-well tissue culture plates at a density of 5 × 10^4 cells per well. Cells were immediately incubated with inhibitors. As these cells already differentiate with 1% DMSO content, inhibitors were prepared as 200× stock solutions in DMSO. In all cases, inhibitors were compared to DMSO vehicle only, and three replicates per concentration were used. Growth inhibition was determined using the CellTiter 96® AQueous Non-Radioactive Cell Proliferation Assay according to the manufacturer’s instructions. Briefly, 5 × 10^4 of HL60 or U937 cells per well were treated with DMSO stocks of the respective inhibitors or with DMSO in 100 µL cell culture medium and incubated for 72 h at 37 °C and 5% CO2 in transparent 96-well microtiter plates (PAA). Subsequently, 20 µL of the detection reagent (containing a tetrazolium salt) was added to each well and incubated for 4 more hours under the same conditions. After this time, absorption was measured at a wavelength of 490 nm (BMG Polarstar, BMG Labtech, Ortenberg, Germany).

recombinant human HDAC1 = target: T2, recombinant human HDAC1 (Homo sapiens, UniProt Q13547); assay: HDAC1 in vitro fluorescence-based inhibition assay (ZMAL substrate); assay type: biochemical; details: for IC50: read-out: IC50 (µM) ± SE HDAC1
T2 construct: purchased BPS Biosciences (San Diego, CA, USA)
Text: as §1, §2

[3] = test system: HDAC activity in HL60 cells; assay: Cellular HDAC inhibition assay (MAL substrate) in HL60 cells; details: Homo sapiens, HL-60, read-out: IC50 (µM) ± SE cellular HDAC inhibition HL60
Protocol: as §3, §4

U937 cells = assay: Cell proliferation assay (CellTiter 96 AQueous) in U937 cells; details: Homo sapiens, U-937, 72 h, read-out: GI50 (µM) ± SE U937
Protocol: as §5, §6

recombinant human HDAC6 = target: T3, recombinant human HDAC6 (Homo sapiens, UniProt Q9UBN7); assay: HDAC6 in vitro fluorescence-based inhibition assay (ZMAL substrate); assay type: biochemical; details: recombinant human HDAC6, ZMAL 10.5 µM, 90 min 37 °C; for IC50: read-out: IC50 (µM) ± SE HDAC6
T3 construct: purchased BPS Biosciences (San Diego, CA, USA)
T3 sequence (Q9UBN7 1-1215): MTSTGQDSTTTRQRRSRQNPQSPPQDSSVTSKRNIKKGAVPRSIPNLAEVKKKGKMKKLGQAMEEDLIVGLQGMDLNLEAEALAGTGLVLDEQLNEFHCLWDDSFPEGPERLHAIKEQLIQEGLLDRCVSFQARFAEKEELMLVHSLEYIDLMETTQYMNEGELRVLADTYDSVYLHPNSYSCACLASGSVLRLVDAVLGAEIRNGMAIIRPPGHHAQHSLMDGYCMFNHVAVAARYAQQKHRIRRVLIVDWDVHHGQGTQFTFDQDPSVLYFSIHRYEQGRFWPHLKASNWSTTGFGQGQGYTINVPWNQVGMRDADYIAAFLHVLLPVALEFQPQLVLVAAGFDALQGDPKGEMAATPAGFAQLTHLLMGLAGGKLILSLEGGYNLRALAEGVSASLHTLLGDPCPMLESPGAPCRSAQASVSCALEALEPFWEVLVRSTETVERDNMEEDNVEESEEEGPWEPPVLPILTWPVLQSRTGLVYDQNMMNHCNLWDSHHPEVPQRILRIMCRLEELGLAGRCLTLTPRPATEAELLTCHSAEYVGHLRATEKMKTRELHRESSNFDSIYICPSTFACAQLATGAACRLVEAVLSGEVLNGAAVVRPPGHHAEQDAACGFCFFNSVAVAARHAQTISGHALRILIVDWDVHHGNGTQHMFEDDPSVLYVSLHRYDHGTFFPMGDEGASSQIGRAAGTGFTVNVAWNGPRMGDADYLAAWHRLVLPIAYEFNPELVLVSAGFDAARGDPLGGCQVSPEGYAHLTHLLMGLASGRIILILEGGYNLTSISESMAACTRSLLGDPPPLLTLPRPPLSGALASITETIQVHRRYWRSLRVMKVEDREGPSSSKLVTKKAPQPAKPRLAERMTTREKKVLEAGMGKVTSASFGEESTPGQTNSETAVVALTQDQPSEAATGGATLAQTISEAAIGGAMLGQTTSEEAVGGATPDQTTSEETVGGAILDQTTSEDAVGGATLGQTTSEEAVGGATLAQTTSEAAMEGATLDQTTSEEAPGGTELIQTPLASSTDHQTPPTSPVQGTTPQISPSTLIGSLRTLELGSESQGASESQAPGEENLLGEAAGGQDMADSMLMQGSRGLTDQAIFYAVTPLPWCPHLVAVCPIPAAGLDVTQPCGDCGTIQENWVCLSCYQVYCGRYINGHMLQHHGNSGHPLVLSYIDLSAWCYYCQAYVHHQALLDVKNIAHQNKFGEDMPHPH
Text: as §1, §2

[4] = test system: acetylation of histone H3 and tubulin in HL60 cells; assay: Western blot of acetylation levels of histone H3 and tubulin in HL60 cells; assay type: cell-based, human; details: 4 h
Protocol: An inhibition of deacetylation in this experiment is expected to lead to hyperacetylation of the respective proteins. Besides histone H3, acetylated tubulin was chosen as a target protein. As tubulin is only accepted as a target by HDAC 6 [21], this allows us to explore subtype selectivity in a cellular setting (see Figure 4).
HL60 cells were treated with the inhibitors in the given concentrations. Cells treated with dimethyl sulfoxide as a vehicle were used as controls. After an incubation time of 4 h, cells were transferred into 50-mL Falcon tubes and centrifuged (300× g, 5 min). The supernatant was removed, and the cells were washed with PBS, before they were transferred to 1.7-mL reaction tubes. The cells were lysated with Bio-Rad loading buffer, and the cell suspension was heated to 95 °C for 5 min. The proteins then were separated using a 15% SDS-polyacrylamide gel electrophoresis and transferred to a polyvinylidene fluoride (PVDF) membrane (Roti-PVDF, Carl Roth, Karlsruhe, Germany). Acetylation levels were detected using an anti-acetyl histone H3 antibody (Millipore, Billerica, MA, USA) and an anti-acetyl-α-tubulin antibody (Sigma Aldrich, St. Louis, MO, USA). An antibody directed against GAPDH (Sigma Aldrich) was used as a loading control.

[5] = recombinant human HDAC1, ZMAL 10.5 µM, 90 min 37 °C

T2 sequence (Q13547 whole entry): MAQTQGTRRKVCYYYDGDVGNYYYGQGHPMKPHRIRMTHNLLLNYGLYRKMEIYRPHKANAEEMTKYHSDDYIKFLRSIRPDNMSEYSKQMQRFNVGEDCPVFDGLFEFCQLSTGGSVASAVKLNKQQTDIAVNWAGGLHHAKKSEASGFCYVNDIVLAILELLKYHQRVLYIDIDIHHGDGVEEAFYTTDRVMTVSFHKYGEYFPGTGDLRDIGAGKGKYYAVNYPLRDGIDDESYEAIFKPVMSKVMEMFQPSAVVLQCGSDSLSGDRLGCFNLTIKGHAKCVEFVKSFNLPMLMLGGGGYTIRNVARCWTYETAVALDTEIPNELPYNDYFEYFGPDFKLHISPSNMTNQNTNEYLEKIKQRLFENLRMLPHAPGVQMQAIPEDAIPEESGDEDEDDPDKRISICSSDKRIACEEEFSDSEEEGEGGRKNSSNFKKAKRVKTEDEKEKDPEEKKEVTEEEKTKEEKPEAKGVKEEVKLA

Compound	inhibition at 100 µM (recombinant human HDAC8)	IC50 [1]	Release of SAHA (%) [2]	GI50 (HL60 cells)	IC50 (recombinant human HDAC1; [5])	IC50 [3]	GI50 (U937 cells)	IC50 (recombinant human HDAC6)	acetylation levels of H3 [4]	tubulin acetylation [4]	IC50 (recombinant human HDAC8; recombinant human HDAC8, Fluor de Lys-HDAC8 substrate 50 µM, 90 min 37 °C, read-out: IC50 (µM) ± SE HDAC8)	effect on H3 and tubulin acetylation levels [4]	IC50 (µM) ± SE HDAC1 (recombinant human HDAC1; [5])	IC50 (µM) ± SE HDAC6 (recombinant human HDAC6)	inhibition at 300 µM (recombinant human HDAC1; at 300 µM, read-out: Inhibition (%) @ Concentration (µM) HDAC1)
CCNC(=O)ONC(=O)CCCCCCC(=O)Nc1ccccc1 [Compound 2c, [(8-Anilino-8-oxo-octanoyl)amino]N-ethylcarbamate]	68%	2.07 ± 0.04 µM	14.5%	0.99 ± 0.17 µM	0.79 ± 0.01 µM	1.42 ± 0.53 µM	0.88 ± 0.13 µM	0.58 ± 0.01 µM	–	–	–	–	–	–	–
CCCCOc1ccc(CC(=O)NO)cc1 [Bufexamac (8), bufexamac, reference compound]	–	–	–	31.8 ± 0.57 µM	31.7 ± 4.75 µM	–	–	2.24 ± 0.05 µM	not affected	hyperacetylation of tubulin	–	–	–	–	–
O=C(CCCCCCC(=O)Nc1ccccc1)NOC(=O)Nc1ccccc1 [Compound 2d, [(8-Anilino-8-oxo-octanoyl)amino]N-phenylcarbamate]	–	0.71 ± 0.002 µM	4.6%	0.58 ± 0.05 µM	0.132 ± 0.001 µM	0.69 ± 0.004 µM	0.42 ± 0.13 µM	0.187 ± 0.007 µM	–	–	6.5 µM and 6.49 µM	in the same range as SAHA	–	–	–
O=C(CCCCCCC(=O)Nc1ccccc1)NOC(=O)NCc1ccccc1 [Compound 2b, [(8-Anilino-8-oxo-octanoyl)amino]N-benzylcarbamate]	52%	3.02 ± 0.03 µM	0.5%	1.06 ± 0.11 µM	0.74 ± 0.01 µM	1.89 ± 0.04 µM	0.68 ± 0.09 µM	0.637 ± 0.002 µM	–	–	–	–	–	–	–
CC(C)NC(=O)ONC(=O)CCCCCCC(=O)Nc1ccccc1 [Compound 2a, [(8-Anilino-8-oxo-octanoyl)amino]N-isopropylcarbamate]	35%	5.3 ± 0.59 µM	2.2%	1.02 ± 0.09 µM	1.52 ± 0.02 µM	3.25 ± 0.02 µM	0.49 ± 0.09 µM	2.11 ± 0.02 µM	–	–	–	–	low micromolar range	low micromolar range	–
CCCCOc1ccc(CC(=O)NOC(=O)NC(C)C)cc1 [Compound 9]	–	–	–	33.99 ± 0.06 µM	–	–	–	13.7 ± 0.16 µM	not affected	hyperacetylation of tubulin	–	–	–	–	49%
O=C(CCCCCCC(=O)Nc1ccccc1)NOC(=O)N1CCNCC1 [Compound 7, [(8-Anilino-8-oxo-octanoyl)amino]piperazin-4-ium-1-carboxylate trifluoroacetate]	–	–	3.7%	25.9 ± 1.96 µM	5.1 µM and 5.09 µM	22.4 ± 0.28 µM	–	3.7 µM and 3.71 µM	–	–	–	least effective substance	–	–	–
O=C(CCCCCCC(=O)Nc1ccccc1)NO [SAHA (1), N-hydroxy-N′-phenyloctanediamide, reference compound]	–	–	–	0.54 ± 0.03 µM	–	–	0.43 ± 0.09 µM	–	–	–	–	–	–	–	–
